pIC50: −log10 of the molar value. Values joined by “and” are separate entries in the source; they are usually repeats but may differ in a detail not shown here. Identical values can stand only once. Like-named read-outs stand apart in the source and are kept apart here.
How the values were obtained:
[1] = tested on: Caco-2 cells
Experimental: LDH Assay: 100 μl of cells supernatant were removed from the basolateral chamber at the end of transport experiment. LDH release was assayed according to the manufacturer instructions using cytotoxicity detection kit (Roche, Cat. No. 1 644 793).
Specifically, an increase in the amount of dead or plasma membrane-damaged cells results in release of lactate dehydrogenase (LDH) enzyme to the surrounding buffer. The enzymatic activity of LDH is measured in a colorimetric assay. A surfactant that damages cell membranes is used as a positive control.
Short term damage—LDH Release: LDH activity in basolateral buffer from inserts of each group (n=2) was measured in a colorimetric assay as described hereinabove. The positive control glycocholate was previously assayed and is shown for comparison.

[2] = tested on: Caco-2 cells; conditions: for recovery at experiment end point: 90 minutes
Experimental: Cells at passage 68 were used in these studies. Caco-2 cells were grown in high D-glucose DMEM medium supplemented with 1% L-glutamine, 1% nonessential amino acids, 1% sodium pyruvate, 1% penicillinstreptomycin and 10% fetal bovine serum.
Cells (passage 68) were harvested after 95% confluence and seeded at a density of 85,000 cells per polycarbonate membranes (0.4 μm pore size and a surface area of 0.33 cm^2) inserts. Cells on inserts were cultured for 10 days.
Transport studies: Test substances transport across Caco-2 monolayers was investigated in ‘apical to basolateral’ direction (n=2), at two time points (45 and 90 minutes).
Prior to the experiment, the culture medium was removed; cells were washed twice with 150 μl apical buffer and 600 μl basolateral buffer (containing 25 mM D-glucose, 20 mM HEPES biological buffer, 1.25 mM CaCl2, 0.5 mM MgCl2, adjusted to pH 7.4 with KOH) and were incubated for 30 minutes at 37° C., 45 RPM, with the same buffers.
Transport studies were performed at 37° C., with shaking at 45 RPM with either the tested compounds or standards (n=2). At each time point, aliquot of 120 μl Basolateral sample was drawn from each insert. For the radioactive marker Mannitol, 20 μl duplicate aliquots were drawn at each time point. […] At endpoint (90 minutes), the whole volume of the apical and basolateral chambers was collected.
Data Recording: Substance samples and propranolol standard samples were analyzed using HPLC (see below for analyses details). [^3H]-Mannitol samples were subjected to analysis by liquid scintillation counting in a Packard TopCount NXT. The results were obtained in CPM.
Papp Calculations: Apparent permeability coefficients (Papp) of tested compounds and standards were calculated from the following equation: Papp(t)=(CtV/t)×(1/C0A) where C0 is the initial concentration (at t=0) of the compound on the donor (apical side); Ct is the concentration at the calculated time point (t) in the receiver (basolateral) chamber; V is receiver chamber volume; A is the surface area of the monolayer; and t is the elapsed time.
Compound and standards Recovery: At the last time point of the experiment (90 minutes), basolateral and apical amounts values were measured and recovery (%) of the tested compound or standard was calculated according to the following equation: Recovery %=(C90 min×Vbasolateral)+(C90 min×Vapical)/C0×Vapical
HPLC analyses: HPLC analyses were performed using a Waters 2790 HPLC system, equipped with PDA 996 detector (Waters).

[3] = molecular target: T1, hIAPP1-37 (Homo sapiens, UniProt P10997); assay: Thioflavin T fluorescence assay of fibril formation; type: biochemical
T1 construct: purchased Calbiochem (CalBiochem Calif., USA); host or cells: solid-phase chemical synthesis
T1 sequence (P10997 34-70 limits assumed): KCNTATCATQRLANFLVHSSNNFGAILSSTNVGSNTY
Experimental: Fibrillization of hIAPP1-37 was monitored by Thioflavin T dye binding assay. hIAPP1-37 stock solution was diluted to a final concentration of 4 μM in 10 mM sodium acetate buffer (pH 6.5) with or without inhibitor, and a final HFIP concentration of 1% (vol). […] In every measurement ThT was added to a final concentration of 3 μM and measurements were carried out using Perkin Elmer (excitation 450 nm, 2.5 nm slit; emission 480 nm 10 nm slit). […] Background was subtracted from all samples.
Thioflavin T (ThT) is commonly used for detecting the level of amyloid formation. hIAPP1-37 solution was prepared as described above. Following incubation in the presence or absence of phenol red and addition of 3 μM ThT to each sample, fluorescence was measured.
Fibrillization of hIAPP1-37 was monitored by Thioflavin T (ThT) dye binding assay, as described above, using an inhibitor concentration of 40 μM or 4 μM.

[4] = tested on: βTC-tet cells; assay: MTT cell viability assay, hIAPP cytotoxicity; type: cell-based, murine; conditions: 4 μM hIAPP1-37, 24 hrs, phenol red in medium, 50% without phenol red
Experimental: βTC-tet cells [Fleischer, N., Chen C., Surana, M., Leiser, M., Rossetti, L., Pralong, W. and Efrat, S. (1998) Functional analysis of a conditionally transformed pancreatic beta-cell line, Diabetes 47, 1419-1425] or PC12 cells (ATCC # CRL-1721) were plated on 24-well plates (2-10^5/well) or on 96-well plates (1-10^4/well) respectively, and allowed to adhere for 24 hours. Synthetic hIAPP1-37 stock solution was diluted to a final concentration of 4 μM in serum free growth medium [Fleischer (1998) Supra] containing DMEM with or without phenol red. Immediately following dilution, samples were centrifuged at 4° C. for 20 minutes at 20,000 g, and the supernatant was bubbled with nitrogen for 30 min to evaporate residual HFIP. Cells were washed twice with PBS and incubated with the supernatant for 24 hrs. MTT (Sigma M-2128) was then added for 3 hrs, followed by addition of lysis buffer and incubation over night. Assay was effected according to Manufacturer's instructions. Samples were read at 570 nm. Cell viability was calculated in comparison to cells incubated in the absence of hIAPP in medium with or without phenol red, respectively.
The ability of phenol red to modulate cytotoxicity effect of hIAPP amyloid assemblies on pancreatic β cells in culture was addressed. […]

[5] = molecular target: T2, hIAPP20-29 (Homo sapiens, UniProt P10997); assay: Kinetic aggregation assay (turbidity); type: biochemical; conditions: 1 mM peptide, 40 mM inhibitor, Tris pH 7.2, 4% DMSO
T2 construct: purchased Peptron, Inc. (Taejeon, Korea); host or cells: solid-phase chemical synthesis
Experimental: Stock solutions of hIAPP22-29 and hIAPP20-29 peptide were prepared by dilution of lyophilized peptides into 10 mM Tris-HCl (pH 7.2) buffer to a final concentration of 1 mM peptide and 4% DMSO. Turbidity data were collected at 405 or 560 nm at room temperature. A buffer solution containing the same amount of DMSO as the tested samples was used as blank. Turbidity was measured using disposable UVette cuvettes (Eppendorf, Germany) and a Scinco S-3100 spectrophotometer.
The core amyloidogenic fragments of hIAPP (hIAPP22-29, hIAPP20-29) aggregate in an aqueous solution. Such an aggregation behavior was served as a preliminary assay for amyloid formation.
In order to evaluate the ability of phenol red to inhibit amyloid formation, the aggregation of 1 mM hIAPP22-29 and hIAPP20-29 (SEQ ID NO: 1 and NO: 2, respectively) was examined in the absence or presence of 40 mM phenol red. To verify the specificity of phenol red molecule towards hIAPP core peptides, a very similar molecule—phenolphthaleine, which differs only by the lack of the sulfon group, was used as control (FIG. 7).

[6] = molecular target: T2, hIAPP20-29; assay: Transmission electron microscopy of fibrils; type: biochemical; conditions: hIAPP20-29 with inhibitor, 24 hr incubation
Experimental: 10 μL samples of hIAPP22-29 or hIAPP20-29 from the aggregation assay, and hIAPP1-37 from the fluorescence assay were placed on 400-mesh copper grids (SPI supplies, West Chester Pa.) covered by carbon-stabilized Formvar film. After 1 minute, excess fluid was removed, and the grids were negatively stained with 2% uranyl acetate in water for another two minutes. Samples were viewed in a JEOL 1200EX electron microscope operating at 80 kV.
Samples of hIAPP22-29 and hIAPP20-29 taken from the aggregation assay (described in Example 3) were visualized using transmission electron microscopy. As is shown in FIG. 4a, distinct and well-defined amyloid fibers were observed 3 and 72 hours after initiation of aggregation in both samples of the hIAPP22-29 peptide, with a minor increase in fiber density and width following 72 hours. […] Same results were obtained with the hIAPP20-29 peptide after 24 hr incubation (FIG. 4b) in the presence of phenol red inhibitor. No inhibition was observed using phenolphthaleine under the same conditions and fibrillar structures were evident on the TEM grid.

[7] = Pharmacokinetics in mice, oral administration
Experimental: (§1) Male mice (ICR), 5 weeks of age, weighing 27-32 grams at study initiation were used. A total of sixteen animals were tested in each set of experiments, divided to 8 groups, 2 animals in each group. Animals were acclimatized for 5-7 days. All test animals was kept under environmental controlled housing conditions throughout the entire study period, and maintained in accordance with Harlan Biotech Israel (HBI) approved standard operation procedures (SOP's).
Administration to test animals was performed orally, following food deprivation of about 3.5-5 hours, by the use of gavage needle made of stainless steel which was introduced directly to the stomach.
Dosing solutions were prepared as described hereinabove for the I.V. administration.
Blood samples were taken, as described hereinabove, at the following time points: 30, 45, 60, 120, 180, 240, 300 and 360 minutes post dosing, two animals per time point, by retro orbital sinus bleeding under CO2 anesthesia.
(§2) Analysis was performed in Analyst Ltd., using LC/MS/MS method.
(§3) The chromatographic separation was achieved on a Gemini C1 8 column (50×2.0 mm, 5 μm), using 50:50 acetonitrile:water solution containing 0.1% NH4OH as the mobile phase, at a flow rate of 0.3 ml/minute.
(§4) All samples were analyzed by the Micromass Quattro Pt triple-quadrupole mass selective detector equipped with an electrospray ionization source. […] The system includes a 2795 HT Waters HPLC and Masslynx v.4.0 software. Quanlynx v.4.0 software was used for calculation.
(§5) For calculation of phenol red concentration in samples, weighted linear regression curves (1/x^2) were calculated from response of analyte versus calibration standard concentration. The weighted linear regression correlation coefficient was grater than 0.99.
(§6) K Parameters Calculations: PK parameters were calculated using Winnonlin Pro 4.01 software (Pharsight).

[8] = Pharmacokinetics in mice, intravenous administration; conditions: for PF3 Concentration / Phenol red Concentration, Analyzed: mice plasma
Experimental: as §1
A single slow intravenous injection (over a period of approximately one minute) was administered into one of the tail veins of each animal.
Dosing solutions were prepared in a co-solvent vehicle system containing DMA:PEG400:Saline 25:40:35 respectively (e.g., each 1 ml consists of 0.25 ml DMA, 0.4ml PEG400 and 0.35 ml Saline).
Dosing solutions were freshly and identically prepared prior to dosing, as deemed necessary.
Blood samples were taken at the following time points: pre-dosing (time 0), 5, 15, 30, 60, 90, 120 and 300 minutes post dosing, two animals per time point, by retro orbital sinus bleeding under CO2 anesthesia. Individual blood samples of at least 0.4 ml whole blood were collected into pre-labeled lithium heparin coated tubes. Plasma separation was made as soon as possible after collection, by centrifugation at 2500G for 15 minutes. After centrifugation supernatant was transferred to eppendorff tube (1.5 ml) pre-labeled with the appropriate animal number, study number and time post dosing. Plasma samples were kept at about −20° C.
as §2, §3, §4, §5, §6

[9] = 4 μM hIAPP1-37, 40 μM inhibitor
[10] = I.V. PF3, 5 minutes post dosing
[11] = I.V. PF3, 15 minutes post dosing
[12] = I.V. PF3, 30 minutes post dosing
[13] = I.V. PF3, 60 minutes post dosing
[14] = I.V. PF3, 125 minutes post dosing
[15] = I.V. PF3, 300 minutes post dosing
[16] = phenol red plasma profile, mice, I.V. PF3
[17] = phenol red plasma profile, mice, I.V. PF3 .25 mg/kg

COc1ccc(C2(c3ccc(OC)cc3)OS(=O)(=O)c3ccccc32)cc1 [PF4, dimethoxy phenol red]
cytotoxicity (LDH activity in basolateral buffer) ([1]; CaCo-2 inserts after transport experiment): negligible | recovery at experiment end point ([2]; 0.2 mM concentration): 105%±31% | recovery at experiment end point ([2]; 1 mM concentration): 123%±48% | detection at the basolateral chamber ([2]; both tested concentrations): not detected | inhibition of hIAPP1-37 fibril formation (ThT fluorescence) [3, 9]: reduced inhibition effect relatively to the phenol red molecule | inhibition of hIAPP1-37 fibril formation (ThT fluorescence) ([3]; 40 μM inhibitor, sample not centrifuged): more evident

Nc1c(/N=N/c2ccc(-c3ccc(/N=N/c4cc(S(=O)(=O)O)c5ccccc5c4N)cc3)cc2)cc(S(=O)(=O)O)c2ccccc12 [congo red, Congo red, reference compound]
inhibition of hIAPP1-37 fibril formation (ThT fluorescence) ([3]; green tea polyphenols experiment, 48 hr to 12 days): inhibitory effect

O=S1(=O)OC(c2ccc(O)cc2)(c2ccc(O)cc2)c2ccccc21 [phenol red]
cell viability (MTT) [4]: 80% | pIC50 ([3]; 4 μM hIAPP1-37, gradual concentration of phenol red, read-out: IC50 of inhibition of fibril formation (ThT fluorescence)): ~5.60 | inhibition level of fibril formation (ThT end point) ([3]; phenol red concentration of 20 μM and above, after one week of incubation): about 90%

O=C1OC(c2ccc(O)cc2)(c2ccc(O)cc2)c2ccccc21 [phenolphthaleine]
aggregation of hIAPP20-29 (turbidity) [5]: No inhibition effect | fibril morphology by TEM [6]: No inhibition | fibril morphology by TEM ([6]; listed as phenolephthaleine): no inhibition effect

diacetoxy phenol red [PF3]
presence of the pro-drug PF3 in plasma ([7]; following oral administration): not detected | intestinal absorption ([7]; oral administration): clearly absorbed in the intestine | Half Life ([7]; phenol red plasma profile, P.O. PF3 […]): 32 min | F, Bioavailability ([7]; phenol red plasma profile, P.O. PF3 […] vs I.V.): 16% | PF3 Concentration [8, 10]: n/d (not detected and denotes a concentration lower than 5 ng/ml) | Phenol red Concentration, Analyzed [8, 10]: >20 µg/mL | PF3 Concentration [8, 11]: n/d (not detected and denotes a concentration lower than 5 ng/ml) | Phenol red Concentration, Analyzed [8, 11]: >20 µg/mL | PF3 Concentration [8, 12]: n/d (not detected and denotes a concentration lower than 5 ng/ml) | Phenol red Concentration, Analyzed [8, 12]: >20 µg/mL | PF3 Concentration [8, 13]: n/d (not detected and denotes a concentration lower than 5 ng/ml) | Phenol red Concentration, Analyzed [8, 13]: 4.12 µg/mL and 4.33 µg/mL | PF3 Concentration ([8]; I.V. PF3, 90 minutes post dosing): n/d (not detected and denotes a concentration lower than 5 ng/ml) | PF3 Concentration [8, 14]: n/d (not detected and denotes a concentration lower than 5 ng/ml) | Phenol red Concentration, Analyzed [8, 14]: 0.76 µg/mL | PF3 Concentration [8, 15]: n/d (not detected and denotes a concentration lower than 5 ng/ml) | Phenol red Concentration, Analyzed [8, 15]: 0.22 µg/mL and 0.29 µg/mL | presence of the pro-drug PF3 in plasma ([8]; mice, following I.V. administration, even after 5 minutes): not observed | AUC (area under the curve) [8, 16]: 2232 µg·min/mL | Volume of distribution (Vss) [8, 16]: 0.367 L/kg | Clearance [8, 17]: 0.66 L/h/kg | Half Life [8, 17]: 40 min | LDH activity in basolateral buffer ([1]; 0.1 mM, only one of the inserts, not repeated, attributed to a factor other than PF3): increase in LDH activity was detected | recovery at experiment end point ([2]; 1 mM concentration): 53%±5% | permeability grading ([2]; CaCo-2, apical to basolateral): low-medium range | Papp values compared to standards ([2]; apical to basolateral, 45 and 90 minutes): higher than mannitol (a marker of paracellular transport) Papp values and lower than propranolol | detection of transport ([2]; higher concentration (0.1 mM)): detected | detection in the basolateral chamber ([2]; lower concentration (0.02 mM), 45 and 90 minutes): not detected | inhibition of hIAPP1-37 fibril formation (ThT fluorescence) [3, 9]: reduced inhibition effect relatively to the phenol red molecule
